Reference: patent publication US11278682B2, “Device and method for aerosolized delivery of substance to a natural orifice of the body” (SIPNOSE LTD., priority 2014, dated 2022)
Several values for one entry are separate records, joined by “and”; a condition that tells them apart may be missing. Equal values may be shown once.

Experiments:
patients [1] = assay: Midazolam pre-medication sedation (BIS EEG monitoring), 3 mg, SipNose vs commercial nasal pump; format: in vivo, human; conditions: for failures in inducing anesthesia: both comparisons pooled (3 mg and 1.4 mg)
Procedure: A comparison was made of the efficacy of delivery of the anesthetic Midazolam, when used for pre-medication, between an embodiment of the SipNose device of the present invention and a prior-art device, the commercial nasal pump based on positive displacement (as the pump used for Alrin™ delivery) and the MAD Nasal from Wolfe Tory.
Comparison with nasal pump (using 5 mg/ml solution): For a pre-medication procedure with commercial nasal pump (positive displacement pump), in order to achieve the desired dose of 3 mg Midazolam, the delivery device was inserted into a nostril and an aliquot of Midazolam is delivered. The delivery device is then inserted into the opposite nostril and a second aliquot of Midazolam is delivered. This is repeated twice more with a 30 s intervals between each cycle, for a total of six aliquots of Midazolam, three in each nostril. As opposed to that, for a SipNose device delivery, a single dose of 0.6 ml was delivered to one nostril.
(§1) In order to determine the efficacy of anesthetization a BIS EEG monitoring was used, where the BIS values for brain activity are calculated from the EEG activity. Awake, unsedated individuals typically have BIS values ≥97. Mildly sedated individuals typically have BIS values in the 80's, moderately sedated individuals typically have BIS values in the 70's, while fully sedated individuals typically have BIS values below about 70; BIS values between about 45 and about 60 are commonly used for general anesthesia during the maintenance phase of an operation.
(§2) Two comparisons were made between the commercial device and the present, SipNose, device. In the first, 3 mg of Midazolam was administered and the commercial device was a commercial nasal pump (positive displacement), in the second, 1.4 mg of Midazolam was administered and the commercial device was a MAD applicator.

patients [2] = assay: Midazolam pre-medication sedation (BIS EEG monitoring), 1.4 mg, SipNose vs MAD Nasal atomizer; format: in vivo, human; conditions: for Positive Sedation / Adverse events / Level of minimum BIS / Onset time: individual patients 1 and 2
Procedure: Comparison with MAD (using a 1 mg/ml solution): For a pre-medication procedure with MAD atomizer, in order to achieve the desired dose of 1.4 mg Midazolam, the delivery device was delivered to one nostril and an aliquot of Midazolam within a volume of 1.4 ml was delivered. For SipNose device delivery the Midazolam was delivered in 2 separate aliquots of 0.7 ml, one to each nostril.
as §1, §2
In the second comparison, the total dose of Midazolam was 1.4 mg in a total volume of carrier of 1.4 ml. For the SipNose device, it was administered in two aliquots of 0.7 ml, whereas it was administered in one aliquot for the commercial MAD Nasal atomizer from Wolfe Tory. Midozolam was administered to four patients, two with the SipNose device and two with the commercial MAD device.

[3] = test system: Pentylenetetrazol (PTZ)-induced epileptic seizures in rats; assay: Pentylenetetrazol (PTZ)-induced epileptic seizures, Racine grading, Midazolam IV vs SipNose; format: in vivo, rat
Procedure: In this example, epileptic seizures were induced in rats by administration of 47.5-50 mg/kg of Pentylenetetrazol (PTZ) for 5 min before the start of treatment with Midazolam. The Midazolam was administered either via IV or using a SipNose device, via the nasal passages. There were two dosing levels, 0.6 mg/kg (FIG. 78) and 6 mg/kg (FIG. 79).
In all cases, the Racine grading standard was used to determine the severity of the seizures. PZT was at t=−5 min, the start of treatment was at time t=0.
Treatment consisted of saline (control, diamonds), Midazolam administered by IV (triangles) or Midazolam administered nasally by a SipNose device (squares).

[4] = Dose-response of Midazolam brain concentration; format: in vivo, rat; conditions: rats; doses about 0.6 to about 6 mg/kg; brain concentration 60 minutes after administration
Procedure: In this example, doses of Midazolam between about 0.6 mg/kg and about 6 mg/kg were administered to rats and the concentration of Midazolam in the brain was measured 60 minutes after administration.

patients [5] = assay: Midazolam as pre-anesthetic drug: effectiveness, safety and user compliance, SipNose vs commercial nasal pump; format: in vivo, human; conditions: for BIS value (minimum after administration): 8 patients
Procedure: Midazolam was administered as a pre-anesthetic drug as a part of premeditation to subjects that needed to be anesthetized prior to the beginning a surgical procedure. Administration of the pre-anesthetic drug was done intranasally instead of the routine PO/IM (oral/intramuscular) route used by the anesthesiologist from the hospital.
The intranasal administration was given by one of the following medical devices: a SipNose nasal device (FIG. 93A) or a commercial nasal pump (FIG. 93B). A single dose of 1×600 microliter (μl) was given with the SipNose device, while 6×100 μl doses were given with a commercial nasal pump. An exemplary administration for the SipNose device is shown in FIG. 94A, while an exemplary administration for the commercial nasal pump is shown in FIG. 94B.
Eight low-risk patients (American Society of Anesthesiology physical status classification I or II) patients were included in each group. Clinical status of the patients, standard continuous monitoring of vital signs, and continuous bispectral index (BIS) monitoring was ongoing 5 minutes before intranasal administration and 30 minutes after.
The objective data consisted in minimum BIS value obtained after administration and time until minimum BIS. The subjective data consisted in physician feedback, swallowing of the drug appreciated by patient, sleeping score appreciated by physician.
Sedation Score was evaluated by physicians as a behavior tool to determine effectiveness of the dose that was given in each of the nasal administrations. Scoring was done according to the following criteria: 1=not Sleepy (not effective); 2=Sleepy/Calm (intermediate effect); 3=Sleeping (drug was effective).
Patients were asked to score if they felt the drug in their throat and/or felt a bitter taste in the throat after the administration of the drug.
The bitterness and swallowing were graded according to the following scale: 1=No swallowing/No bitter taste; 5=A meaningful amount was swallowed/Strong bitter taste.
The repeated administrations with the nasal pump were given with 30 s intervals between them to allow the drug to be absorbed in the nasal cavity before another dose was given.
The anesthesiologist in charge of the patients was asked to rate the overall experience with intranasal administration of midazolam. (1=very good; 5=Not satisfactory).

[6] = commercial nasal pump, 3 mg Midazolam
[7] = commercial MAD Nasal atomizer, 1.4 mg

Cc1ncc2n1-c1ccc(Cl)cc1C(c1ccccc1F)=NC2 [Midazolam]
Adverse events (patients [1]; SipNose device, 3 mg Midazolam): 0
Level of minimum BIS (patients [1]; SipNose device, 3 mg Midazolam): 74.5±9
Mean onset time (patients [1]; SipNose device, 3 mg Midazolam): 5.9 ± 4.6 min
level of Maximum BIS (patients [1]; SipNose device, 3 mg Midazolam): 97
sleep score (1 not sleepy, 2 sleepy or calm, 3 sleeping) (patients [1]; SipNose device, 3 mg Midazolam): 3
Number of Positive Sedations (patients [1]; SipNose device, 3 mg Midazolam, 8 patients): 8
failures in inducing anesthesia (patients [1]; SipNose device): no failures in 10 patients
sleep score (1 not sleepy, 2 sleepy or calm, 3 sleeping) (patients [1]; commercial device (nasal pump), 3 mg Midazolam): less than 2
failures in inducing anesthesia (patients [1]; commercial devices): 2 failures and one partial failure in 6 patients
Adverse events (patients [1]; [6]): 0
Level of minimum BIS (patients [1]; [6]): 87.5±5.3
Mean onset time (patients [1]; [6]): 6.7 ± 4.6 min
Minimum BIS excluding failure (patients [1]; [6]): 85
level of Maximum BIS (patients [1]; [6]): 97
Number of Positive Sedations (patients [1]; commercial nasal pump, 3 mg Midazolam, 4 patients): 3
sleeping score by observation (patients [2]; SipNose administration, 1.4 mg): 3
Positive Sedation (patients [2]; SipNose device, 1.4 mg in two aliquots of 0.7 ml): Yes
Adverse events (patients [2]; SipNose device, 1.4 mg): No
Level of minimum BIS (patients [2]; SipNose device, 1.4 mg): 84
Onset time (patients [2]; SipNose device, 1.4 mg): 3 min and 5 min
Positive Sedation (patients [2]; commercial MAD Nasal atomizer, 1.4 mg in one aliquot): Limited and No
Adverse events (patients [2]; [7]): No
Level of minimum BIS (patients [2]; [7]): 83 and 92
Onset time (patients [2]; [7]): 20 min and 8 min
sleeping score by observation (average) (patients [2]; commercial device, 1.4 mg): 1.5
Racine seizure severity ([3]; 0.6 mg/kg Midazolam nasally by SipNose, about t=10 min to t=60 min): zero, no seizures were seen
Racine seizure severity ([3]; 6 mg/kg Midazolam IV): < 0.5
Racine seizure severity ([3]; 6 mg/kg Midazolam nasally by SipNose): < 0.5
dose-response curve of brain concentration [4]: essentially linear
patients with Highly Effective sedation (patients [5]; Commercial Nasal Pump): 12.5%
patients with Intermediate Effect of sedation (patients [5]; Commercial Nasal Pump): 50%
patients with sedation Not Effective (patients [5]; Commercial Nasal Pump): 37.5%
patients with Highly Effective sedation (patients [5]; SipNose): 100%
Sedation Score (1 not sleepy, 2 sleepy/calm, 3 sleeping) (patients [5]; SipNose group): 3
BIS value (minimum after administration) (patients [5]; SipNose group, 1×600 μl): 74.50±3.196
adverse events or safety issues (patients [5]; both administration procedures (SipNose and commercial nasal pump)): No adverse events or safety issues were reported
Sedation Score (1 not sleepy, 2 sleepy/calm, 3 sleeping) (patients [5]; commercial pump group): below 2
BIS value (minimum after administration) (patients [5]; commercial pump group, 6×100 μl): 87.25±1.840
